Source: patent publication EP1336402B1, “Association of diguanosine tetraphosphate and nicotinic derivatives used for the treatment of capillary disorders, in particular the treatment of hair loss” (Pierre Fabre Dermo-Cosmetique, priority 2002, dated 2003)

How the values were obtained:
[1] = tested on: co-culture de cellules endothéliales humaines et de fibroblastes humains; assay: in vitro angiogenesis model: co-culture, tubule length quantified by image analysis after 12 days; format: cell-based; conditions: 12 days of culture, untreated control 4150
Description: Par ailleurs, la composante vasculaire jouant un rôle fondamental dans la croissance du follicule pileux, l'influence des principes actifs précédemment décrits sur ce paramètre a été évaluée sur un modèle d'angiogénèse in vitro.
Le modèle repose sur une co-culture de cellules endothéliales humaines et de fibroblastes humains (kit angiogénèse Bioprédic International), qui est réalisée en présence ou pas des actifs à tester.
Les cellules endothéliales migrent à travers la matrice pour former des structures tubulaires, qui sont quantifiées au bout de 12 jours de culture. La quantification de la longueur des capillaires est réalisée par analyse d'image.

[2] = tested on: cellules de la papille dermique du follicule pileux; assay: cell metabolism of dermal papilla cells in monolayer culture; format: cell-based; conditions: for augmentation du métabolisme cellulaire: culture mono-couche, concentrations not given
Description: L'intérêt de l'association de ces deux actifs a été confirmé sur d'autres modèles cellulaires, notamment sur le métabolisme des cellules de la papille dermique du follicule pileux en culture mono-couche, où l'association GP4G + nicotinate de tocophérol a montré une augmentation de + 26,2 % du métabolisme cellulaire, supérieure à celle des actifs testés seuls (12,6 % et 18,3 % respectivement).

Nc1cc(N2CCCCC2)nc(N)[n+]1[O-] [Minoxidil, reference compound]
LONGUEUR DES TUBULES PAR CHAMP DE COMPTAGE Moyenne ([1]; Minoxidil 25 µg/ml): 7662

Cc1c(C)c2c(c(C)c1OC(=O)c1cccnc1)CCC(C)(CCCC(C)CCCC(C)CCCC(C)C)O2 (stereo not drawn) [Nicotinate de tocophérol, Alpha Tocophéryl Nicotinate]
augmentation du métabolisme cellulaire [2]: 18,3%
LONGUEUR DES TUBULES PAR CHAMP DE COMPTAGE Moyenne ([1]; 1 µg/ml): 4015
LONGUEUR DES TUBULES PAR CHAMP DE COMPTAGE Moyenne ([1]; 10 µg/ml): 4634
LONGUEUR DES TUBULES PAR CHAMP DE COMPTAGE Moyenne ([1]; 20 µg/ml): 5363

Cc1ccc(C(=O)Nc2ccc(S(=O)(=O)O)c3cc(S(=O)(=O)O)cc(S(=O)(=O)O)c23)cc1NC(=O)c1cccc(NC(=O)Nc2cccc(C(=O)Nc3cc(C(=O)Nc4ccc(S(=O)(=O)O)c5cc(S(=O)(=O)O)cc(S(=O)(=O)O)c45)ccc3C)c2)c1 [Suramine, reference compound]
LONGUEUR DES TUBULES PAR CHAMP DE COMPTAGE Moyenne ([1]; Suramine 20 µM): 3072

diguanosine tétraphosphate [GP4G]
augmentation du métabolisme cellulaire [2]: 12,6%
métabolisme des cellules de la papille dermique (CPD) ([2]; en présence de GP4G, result in words): augmentation fonction-dose
LONGUEUR DES TUBULES PAR CHAMP DE COMPTAGE Moyenne ([1]; GP4G 0.01 %): 3814
LONGUEUR DES TUBULES PAR CHAMP DE COMPTAGE Moyenne ([1]; GP4G 0.1 %): 4040
LONGUEUR DES TUBULES PAR CHAMP DE COMPTAGE Moyenne ([1]; GP4G 1.0 %): 6803
